Target: T1, Tyrosine-protein phosphatase non-receptor type 1 (Homo sapiens, UniProt P18031)
T1 sequence (P18031 whole entry): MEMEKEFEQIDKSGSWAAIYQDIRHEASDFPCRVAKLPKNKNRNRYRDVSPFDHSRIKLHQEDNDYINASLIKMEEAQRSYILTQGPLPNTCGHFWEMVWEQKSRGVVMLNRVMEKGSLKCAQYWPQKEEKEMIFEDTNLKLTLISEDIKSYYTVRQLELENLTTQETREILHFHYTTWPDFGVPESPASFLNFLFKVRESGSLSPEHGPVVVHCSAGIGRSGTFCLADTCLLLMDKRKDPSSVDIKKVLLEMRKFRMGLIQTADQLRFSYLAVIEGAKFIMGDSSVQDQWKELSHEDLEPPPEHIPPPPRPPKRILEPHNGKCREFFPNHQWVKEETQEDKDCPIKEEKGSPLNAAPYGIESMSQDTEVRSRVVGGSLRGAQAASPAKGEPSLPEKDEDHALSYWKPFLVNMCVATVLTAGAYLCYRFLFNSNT
Assay: Inhibition of human recombinant PTP1B

| SMILES | IC50 |
| --- | --- |
| CC(C)=CCc1cc(/C=C/C(=O)c2ccc(O)cc2O)cc(CC=C(C)C)c1O [ABYSSINONE VI] | 20.6 µM |
| CC(C)=CCc1cc([C@@H]2CC(=O)c3c(O)cc(O)cc3O2)c(CC=C(C)C)c(O)c1O [SIGMOIDIN A] | 14.4 µM |
| C=C(C)C(O)Cc1cc([C@@H]2CC(=O)c3c(O)cc(O)cc3O2)cc(CC=C(C)C)c1O (stereo partly drawn) [ABYSSINOFLAVANONE VII] | 15.7 µM |
| CC1(C)C=Cc2cc([C@@H]3CC(=O)c4c(O)cc(O)cc4O3)cc(O)c2O1 [SIGMOIDIN C] | > 60 µM |
| CC(C)=CCc1c([C@H]2CC(=O)c3c(O)cc(O)cc3O2)cc2c(c1O)OC(C)(C)C=C2 [SIGMOIDIN F] | 14.2 µM |
| COc1cc(C2CC(=O)c3c(O)cc(O)cc3O2)cc2c1OC(C)(C)C=C2 (stereo not drawn) [ABYSSININ I] | 18.2 µM |
| CC1(C)C=Cc2cc([C@@H]3CC(=O)c4c(O)cc(O)cc4O3)ccc2O1 [ABYSSINOFLAVONE V] | > 60 µM |

Further lines, results first:

| IC50 | SMILES |
| --- | --- |
| 19.2 µM | COc1cc([C@@H]2CC(=O)c3ccc(O)cc3O2)cc(CC=C(C)C)c1O |
| 26.7 µM | CC(C)=CCc1cc(-c2cc(=O)c3c(O)cc(O)cc3o2)ccc1O |
| 16.9 µM | CC(C)=CCc1cc(/C=C/C(=O)c2ccc(O)cc2O)ccc1O [LICOAGROCHALCONE A] |
| 19.4 µM | CC(C)=CCc1cc([C@@H]2CC(=O)c3c(O)cc(O)cc3O2)cc(O)c1O [SIGMOIDIN B] |
| 18.9 µM | CC(C)=CCc1cc([C@@H]2CC(=O)c3c(O)cc(O)cc3O2)cc2ccoc12 [ABYSSINOFLAVANONE VI] |
| 17.3 µM | COc1cc([C@@H]2CC(=O)c3c(O)cc(O)cc3O2)cc(CC=C(C)C)c1O [ABYSSININ II] |

Reference: ChEMBL document CHEMBL1143674, “Isoprenylated flavonoids from the stem bark of Erythrina abyssinica” (J Nat Prod, 2007)
